# According to PubChem BioAssay (NCI):
#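 The compound was tested at five concentrations on cells cultured in 96-well plates, with a 48-hour exposure period. GI50 marks 50% less growth. TGI: total growth inhibition.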
# Columns and labels:
# Experiment in all cases: growth of human tumour cells (NCI), 48 h
# [1] = system: ACHN renal
# [2] = system: BT-549 breast
# [3] = system: HL-60(TB) leukemia
# [4] = system: HT29 colon
# [5] = system: NCI-H522 lung
# [6] = system: SF-539 CNS
# [7] = system: SN12C renal
# [8] = system: T-47D breast
# [9] = system: UACC-62 melanoma
# [10] = system: UO-31 renal
SMILES,GI50 [1],TGI [1],GI50 [2],TGI [2],GI50 [3],TGI [3],GI50 [4],TGI [4],GI50 [5],TGI [5],GI50 [6],TGI [6],GI50 [7],TGI [7],GI50 [8],TGI [8],GI50 [9],TGI [9],GI50 [10],TGI [10]
CNCCCNc1nc2ccccc2c2c(=O)c3cc(OC)ccc3sc12,1.64 µM,3 µM,12.8 µM,26.8 µM,1.95 µM,4.04 µM,1.72 µM,3.56 µM,1.84 µM,3.88 µM,1.7 µM,3.1 µM,1.67 µM,3.28 µM,2.22 µM,5.61 µM,1.76 µM,3.27 µM,1.42 µM,2.75 µM
CCCCCCSSC(=S)N(CC)CC,20.1 µM,41.7 µM,17.1 µM,45.2 µM,18.1 µM,52.3 µM,20.5 µM,38.8 µM,1.66 µM,21.3 µM,17.5 µM,43.3 µM,18.3 µM,40.3 µM,25.4 µM,> 100 µM,17.2 µM,36.9 µM,18.1 µM,34.9 µM
CC(=O)N1CCN(CCNC(=O)n2cc(-c3ccncc3)c(-c3cc(O)cc(Cl)c3)n2)CC1,8.26 µM,61.9 µM,13 µM,27.1 µM,7.79 µM,29 µM,3.28 µM,11.9 µM,14.9 µM,34.1 µM,5.73 µM,21.1 µM,13.7 µM,46.2 µM,16.6 µM,49.2 µM,2.95 µM,16.2 µM,8.95 µM,22.5 µM
NC(=O)c1ccc(Oc2nccc(-c3c(-c4ccc(F)cc4)ncn3C3CCNCC3)n2)cc1,> 25 µM,> 25 µM,> 25 µM,> 25 µM,> 25 µM,> 25 µM,> 25 µM,> 25 µM,> 25 µM,> 25 µM,> 25 µM,> 25 µM,> 25 µM,> 25 µM,> 25 µM,> 25 µM,> 25 µM,> 25 µM,> 25 µM,> 25 µM
COc1cc(C2C3=C(COC3=O)N(CCO)c3cc4c(cc32)OCCO4)cc(OC)c1OC (stereo not given),1.7 µM,> 50 µM,0.32 µM,> 11.8 µM,0.155 µM,1.28 µM,0.166 µM,–,0.0626 µM,0.185 µM,0.147 µM,–,–,> 50 µM,0.287 µM,> 50 µM,–,> 50 µM,1.82 µM,> 50 µM
CSc1nc2nc3c(nc2c(=O)n1C)C(=O)c1ccccc1C3=O,0.299 µM,1.04 µM,0.159 µM,0.305 µM,0.209 µM,0.514 µM,0.253 µM,0.637 µM,0.16 µM,0.332 µM,0.196 µM,0.384 µM,0.157 µM,0.307 µM,0.226 µM,0.843 µM,0.0467 µM,0.183 µM,0.236 µM,0.768 µM
CCCOC(=O)c1c(C)n(C)c2scc[n+]12,> 100 µM,> 100 µM,35.9 µM,> 100 µM,> 100 µM,> 100 µM,32.8 µM,> 100 µM,31.4 µM,> 100 µM,91.2 µM,> 100 µM,59.5 µM,> 100 µM,38.5 µM,> 100 µM,> 100 µM,> 100 µM,> 100 µM,> 100 µM
O=C(NCCCc1cn[nH]c1)c1ccc(-c2ccncc2)c(C#Cc2ccc(F)cc2)c1,6.91 µM,> 100 µM,0.369 µM,60.9 µM,1.85 µM,14.6 µM,< 0.01 µM,36.7 µM,< 0.0406 µM,53.2 µM,< 0.01 µM,14.5 µM,< 0.01 µM,> 100 µM,–,11 µM,16.5 µM,> 70.1 µM,3.4 µM,> 67.2 µM
Nc1nc2c(C(=O)NCc3cccs3)nnn2c2cccc(Cl)c12,–,> 100 µM,–,> 100 µM,–,> 100 µM,–,> 100 µM,–,> 100 µM,–,> 100 µM,–,> 100 µM,–,50.7 µM,–,> 100 µM,–,> 100 µM
O=C(NC(=O)c1c(Cl)nc2sccn12)Nc1ccc(Cl)cc1,–,> 100 µM,–,> 81.9 µM,–,> 100 µM,–,> 100 µM,–,> 100 µM,–,73.1 µM,–,> 100 µM,–,> 100 µM,–,> 100 µM,–,> 84.4 µM
O=C1CSC(c2ccccc2Cl)N1c1nnc(Cn2cnnc2)o1 (stereo not given),14.3 µM,48.6 µM,6.31 µM,32.5 µM,2.69 µM,8.67 µM,3.35 µM,13.9 µM,10.4 µM,38 µM,13.6 µM,35.2 µM,23.1 µM,76.3 µM,3.76 µM,31.9 µM,7.55 µM,27.5 µM,30.8 µM,> 100 µM
